Measured values reported in the METLIN SMRT retention time set (Domingo-Almenara et al. 2019).

Assay: gradient 5% acetonitrile 3 min, to 50% in 2 min, to 85% in 15 min, held 3 min, 100 µL/min
Conditions: column: Zorbax Extend-C18 2.1 x 50 mm; eluents: water / acetonitrile, 0.1% formic acid
How it was run: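 A Zorbax Extend-C18 column (2.1 × 50 mm, 1.8 μm) run at 100 μL/min with water and acetonitrile, both containing 0.1% formic acid, separated mixtures of ~100 pure standards. The HPLC was coupled to a quadrupole time-of-flight mass spectrometer operated in positive and negative ionization mode, with dead and dwell volumes of 40 μL and 900 μL. Each retention time was taken from a computationally picked adduct peak that was then manually inspected.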

For `Cc1ccc(S(=O)(=O)N2CCCC2C(=O)Nc2nnc(-c3ccc(C)c(C)c3)o2)cc1` (stereo not drawn), the RP-LC retention time was 872 s.

Work on `COc1ccc(-c2nc(-c3ccc4c(c3)oc(=O)n4C(C)C)no2)c(C)c1` yielded an RP-LC retention time of 1270 s.

For `CCc1nn2c(CNS(=O)(=O)c3ccc4c(c3)CCC4)c(-c3ccccc3)nc2s1`, the RP-LC retention time was 1020 s.

For `O=C(NCc1ccc2c(c1)OCO2)C1CCCN(c2ncc(-c3ccccc3)cn2)C1` (stereo not drawn), the RP-LC retention time was 992 s.

In the case of `CCOc1ccc(-c2cc3c(=O)n(Cc4nc(-c5ccccc5)no4)ncn3n2)cc1`, the RP-LC retention time is reported as 720 s.

`Cc1cccc(S(=O)(=O)N2CCC(c3nc(C(=O)N4CCOCC4)c(C)o3)CC2)c1` gave an RP-LC retention time of 819 s.

With `COc1ccc(N2C(=O)C3N=NN(Cc4nc(-c5ccccc5C)no4)C3C2=O)cc1` (stereo not drawn) the RP-LC retention time was 976 s.

`COc1cc(OC)cc(-c2nc(-c3cn(-c4ccc(C)cc4)nn3)no2)c1` gave an RP-LC retention time of 1140 s.

With `CCOCCCNC(=O)C1Cn2cccc2C(=O)N1C` (stereo not drawn) the RP-LC retention time was 597 s.

With `CCCc1noc(-c2ccc3nnc(CC(=O)Nc4ccc(C)cc4C)n3c2)n1` the RP-LC retention time was 926 s.

`O=C(Cn1nc(N2CCOCC2)c2ccccc2c1=O)Nc1ccc(F)cc1Cl` showed an RP-LC retention time of 816 s.

For `Cc1nnc(-c2nnc(NCCC(C)C)c3ccccc23)o1`, the RP-LC retention time was 710 s.

Work on `COc1ccc(CNc2nc(-c3ccccc3)nnc2C)cc1` yielded an RP-LC retention time of 683 s.

Work on `COC(=O)C1=CN(c2ccc(C)c(F)c2)c2ccc(F)cc2S1(=O)=O` yielded an RP-LC retention time of 920 s.

Compound `Cc1ccc(CNC(=O)N2CCC(C(=O)NCc3csc(C)n3)CC2)cc1` has an RP-LC retention time of 661 s.

Compound `O=C(Nc1cnc(-c2cccc(Cl)c2)nc1)c1ccsc1` has an RP-LC retention time of 1030 s.

With `Cn1nc(C(=O)N2CCCC(C(=O)Nc3ccccc3)C2)c2c1CCN(C(=O)CCc1ccccc1)C2` (stereo not drawn) the RP-LC retention time was 800 s.

For `CC(=O)Nc1ccc(-n2c(C)nc3ccccc3c2=O)cc1C`, the RP-LC retention time was 621 s.

`O=C(c1cc(N2C(=O)CCS2(=O)=O)ccc1Cl)N1CCN(c2ccccn2)CC1` showed an RP-LC retention time of 566 s.

In the case of `CCOc1ccc(OCC)c(N2C=C(C#N)S(=O)(=O)c3ccccc32)c1`, the RP-LC retention time is reported as 1000 s.

In the case of `c1ccc(CN2CCN(c3c4c(nc5nc(-c6ccccc6)nn35)CCCC4)CC2)cc1`, the RP-LC retention time is reported as 668 s.

`COCC(=O)NC1CCC12CCN(C(C)=O)CC2` (stereo not drawn) showed an RP-LC retention time of 589 s.

For `O=C1NC(C(=O)NCc2ccccn2)Cn2cccc21` (stereo not drawn), the RP-LC retention time was 541 s.

Compound `COc1ccc(NC(=O)CN2C(=O)C(C)(C)c3ccccc32)c(OC)c1` has an RP-LC retention time of 869 s.

`Cc1c(C(=O)Nc2ccnn2Cc2ccco2)oc2cc(Br)ccc12` showed an RP-LC retention time of 1020 s.

With `O=C(Nc1cccc(Cl)c1F)c1cnc(-c2ccc(F)cc2)nc1-c1ccncc1` the RP-LC retention time was 972 s.

For `CC1=C(C(=O)Nc2ccccc2F)C(c2ccccc2Br)NC(=O)N1` (stereo not drawn), the RP-LC retention time was 672 s.

In the case of `CC(=O)N1c2ccc(S(=O)(=O)N(C)CC(=O)N3CCN(c4ccccn4)CC3)cc2CC1C` (stereo not drawn), the RP-LC retention time is reported as 590 s.

Work on `CCc1ccc(NC(=O)N2CCN(c3cc(C)nc(N4CCOCC4)n3)CC2)cc1` yielded an RP-LC retention time of 668 s.

Compound `CCOC(=O)c1sc(NC(=O)C(C)(C)C)nc1-c1ccccc1` has an RP-LC retention time of 592 s.

`Cc1ccc(-c2noc(C3CCCN3C(=O)C(NS(=O)(=O)c3ccc(C)cc3)C(C)C)n2)cc1` (stereo not drawn) gave an RP-LC retention time of 1150 s.

With `COc1cccc(CNC(=O)N2CCN(c3cnn4c(C)nnc4c3)CC2)c1` the RP-LC retention time was 658 s.

With `O=C(O)c1cnc(N2CCOCC2)nc1-c1cccc(Cl)c1` the RP-LC retention time was 770 s.

`O=C1NC2(CCN(C(=O)NCc3ccc(F)cc3)CC2)Nc2c(Cl)cccc21` gave an RP-LC retention time of 770 s.

With `COCCCNC(=O)CN1CCN(c2cc(C(=O)O)c3cc(NC(=O)C4CCCC4)ccc3n2)CC1` the RP-LC retention time was 575 s.

Compound `O=C(Nc1ccsc1-c1nnc(C2CC2)o1)c1cccc(Br)c1` has an RP-LC retention time of 1390 s.

With `Cc1cccc(NC(=O)C2CCCN(S(=O)(=O)c3c[nH]c(C(=O)N4CCCC4)c3)C2)c1C` (stereo not drawn) the RP-LC retention time was 802 s.

Compound `CCn1c(=O)c2ccn(CC(=O)NCc3ccc(SC)cc3)c2n(CC)c1=O` has an RP-LC retention time of 744 s.

With `CC(C)n1c(CCNC(=O)Cc2ccc(F)cc2)nc2cccnc21` the RP-LC retention time was 672 s.

For `O=S(=O)(CCc1noc(-c2cccc(F)c2)n1)c1ccccc1`, the RP-LC retention time was 904 s.

For `COc1cccc(-c2noc(Cn3ccn(-c4ccccc4)c(=O)c3=O)n2)c1`, the RP-LC retention time was 812 s.

With `COc1cccc(-c2noc(N3CCN(c4ccccn4)CC3)n2)c1` the RP-LC retention time was 678 s.

`COc1ccc(C(=O)NC2CCN(c3cc(-c4ccc(OC)cc4)[nH]n3)C2)cc1` (stereo not drawn) gave an RP-LC retention time of 706 s.

`Cc1cc(N2CCOCC2)nc(N2CCN(S(=O)(=O)c3ccc4c(c3)Cc3ccccc3-4)CC2)n1` gave an RP-LC retention time of 813 s.

In the case of `Cc1ccc(C(=O)Nc2ccc(-n3c(C)nc4ccccc4c3=O)cc2C)s1`, the RP-LC retention time is reported as 821 s.

`CCc1ccccc1NC(=O)N1CCc2nc[nH]c2C1` showed an RP-LC retention time of 575 s.

For `Cc1nn(-c2ccccc2)c(C)c1S(=O)(=O)N1CCC(C(=O)Nc2ccc3c(c2)OCCO3)CC1`, the RP-LC retention time was 914 s.

For `Cc1cnc(C2CCC2)n1CC1CCN(S(=O)(=O)Cc2cccc(F)c2)C1` (stereo not drawn), the RP-LC retention time was 683 s.

In the case of `O=C(c1cn2nc(Cl)ccc2n1)N1CCN(c2ccc(Cl)cc2)CC1`, the RP-LC retention time is reported as 858 s.

`COc1cc2c(cc1OC)CN(C(=O)CSc1ncnc3sc(C)c(C)c13)CC2` showed an RP-LC retention time of 851 s.

`Cc1ccc(-c2nc(C3CCN(S(=O)(=O)c4cccc(F)c4)CC3)no2)cc1` gave an RP-LC retention time of 1160 s.

`Cc1cc(C(=O)NCC(O)c2cccc3ccccc23)c(C)o1` (stereo not drawn) showed an RP-LC retention time of 801 s.

Compound `O=C(NCc1ccc2c(c1)OCO2)C(=O)Nc1ccon1` has an RP-LC retention time of 655 s.

In the case of `Cc1[nH]c(C(=O)N2CCC(CC(=O)N(C)Cc3ccco3)CC2)c(C)c1C(=O)OC(C)C`, the RP-LC retention time is reported as 798 s.

`CSc1cccc(NC(=O)Cn2c(C)cc(-c3nnc(C)o3)c2C)c1` showed an RP-LC retention time of 790 s.

`CCOC(=O)c1c(C)n(C)c2ccc(OCC(O)CN3CCOCC3)cc12` (stereo not drawn) gave an RP-LC retention time of 630 s.

With `CC(C)c1ccc(C(=O)N2CCc3c(c(-c4nc(C5CC5)no4)nn3C)C2)cc1` the RP-LC retention time was 971 s.

`Cc1nc(-c2cc(S(=O)(=O)Nc3ccc(F)cc3Cl)c(C)s2)cs1` gave an RP-LC retention time of 1050 s.

Compound `Cc1oc(-c2cccc(Cl)c2)nc1COc1cc(C)c2c(C)nn(C)c2n1` has an RP-LC retention time of 1340 s.

`Cc1cc(Cl)ccc1NC(=O)Cn1cccc1-c1nnc(C2CCC2)o1` showed an RP-LC retention time of 1040 s.

Work on `CNC(=O)c1cnc(-c2ccc(Cl)cc2)n(CC(=O)N2CCc3ccccc32)c1=O` yielded an RP-LC retention time of 997 s.

Compound `O=C(Cc1ccc(Cl)cc1)N1C[C@@H]2C[C@H]1C[C@@H]2NS(=O)(=O)c1cccs1` has an RP-LC retention time of 838 s.

In the case of `Cc1ccc(Nc2nc(C)cc3nn(CC(=O)Nc4ccc(N(C)C)cc4)c(=O)n23)cc1`, the RP-LC retention time is reported as 800 s.

`Cc1ccc(-c2csc(NC(=O)CN3CCN(Cc4ccc5c(c4)OCO5)CC3)n2)cc1` gave an RP-LC retention time of 737 s.

`CCc1noc(NC(C)=O)c1-c1ccc(C)c(S(=O)(=O)NCc2ccco2)c1` showed an RP-LC retention time of 766 s.

`CN1CCN(C(=O)c2nn(-c3ccc(Cl)cc3)c3c(=O)n(C)cnc23)CC1` showed an RP-LC retention time of 611 s.

In the case of `COc1ccc2[nH]c(C(=O)Nc3ccccc3)cc2c1`, the RP-LC retention time is reported as 880 s.

`CCC(c1cccs1)N1C(=O)[C@H]2CN(S(=O)(=O)c3ccccc3C)C[C@H]2C1=O` (stereo partly drawn) gave an RP-LC retention time of 1020 s.

For `COC1CN(c2cccc(F)c2)C12CCN(S(=O)(=O)Cc1ccccc1F)CC2` (stereo not drawn), the RP-LC retention time was 1170 s.

`CC1(C)CCC=[N+]1[O-]` showed an RP-LC retention time of 487 s.

`Cc1ccc(S(=O)(=O)NCCc2cn(CC(C)C)c3ncccc23)cc1Cl` gave an RP-LC retention time of 1070 s.

Compound `Cc1nn(CC(=O)N2CCCCCC2)c(=O)c2c(-n3cccc3)n(-c3ccccc3)nc12` has an RP-LC retention time of 978 s.

`O=C1CCCc2cc(S(=O)(=O)NCCN3CCN(c4ccccc4F)CC3)ccc2N1` gave an RP-LC retention time of 621 s.

`Cc1cc(C)n(-c2ccnc(N3CCC(C(=O)NCc4ccncc4)CC3)n2)n1` showed an RP-LC retention time of 599 s.

In the case of `CCOc1ccccc1NC(=O)Cn1cccc(-c2nc(-c3ccc(Br)cc3)no2)c1=O`, the RP-LC retention time is reported as 1100 s.

Compound `CCn1cc(CCNC(=O)Nc2cccc(Cl)c2F)c2cccnc21` has an RP-LC retention time of 802 s.

With `Cc1ccccc1CNC(=O)c1ccc2c(c1)Sc1ncccc1C(=O)N2C` the RP-LC retention time was 789 s.

`COc1ccc(OC)c(NC(=O)c2[nH]c3cc(C)sc3c2CN2CCOCC2)c1` showed an RP-LC retention time of 705 s.

Work on `CC(C)c1cc(C(=O)Nc2ccc(C#N)cc2)nc2ccnn12` yielded an RP-LC retention time of 1030 s.

`Cc1ccc(-n2c(N3CCCC(C(=O)NCCCc4ccccc4)C3)nc3ccsc3c2=O)cc1` (stereo not drawn) gave an RP-LC retention time of 987 s.

With `CCCC1(CO)CCCN1C(=O)c1ccc2[nH]ccc2c1` (stereo not drawn) the RP-LC retention time was 745 s.

With `O=C(NCCN1CCCCCC1)C1CCCN(c2ncc(-c3cccc(F)c3)cn2)C1` (stereo not drawn) the RP-LC retention time was 715 s.

`CSc1ccc(-c2noc(Cn3cnc4c(cnn4-c4ccc(C)c(Cl)c4)c3=O)n2)cc1` gave an RP-LC retention time of 1270 s.

`Cc1cc(C(=O)Nc2ccccc2I)n(-c2ccccc2)n1` showed an RP-LC retention time of 974 s.

In the case of `Cc1cc(N2CCN(C)CC2)nc2ccc(NC(=S)N3CCCCCC3)cc12`, the RP-LC retention time is reported as 556 s.

Work on `Cc1ccccc1Nc1c(-c2c(F)cccc2Cl)nc2cccc(C)n12` yielded an RP-LC retention time of 762 s.

With `CCCCOc1ccc(-c2cc3c4nnc(CCC(=O)N5CCN(C)CC5)n4ccn3n2)cc1` the RP-LC retention time was 686 s.

`Cn1ccc2cc(CCC(=O)N3CCN(c4ccc(Cl)cc4)CC3)ccc21` gave an RP-LC retention time of 1050 s.
